Measured values taken from DBAASP.
In brackets after ≈: the same amount, converted by molar mass. Several values for one entry are separate records, joined by “and”; a condition that tells them apart may be missing. Equal entries are not always repeated. Blank lines part the entries; values can stand above or below the compound they belong to.

Legend:
Assay in all cases: ≥ marks a high value that may be exact or a test limit, other limits are often not marked, values filed in µg/mL are converted to µM
[1] = test system: Staphylococcus aureus ATCC 29213
[2] = test system: Pseudomonas aeruginosa ATCC 27853
[3] = test system: Klebsiella oxytoca ATCC 49131
[4] = test system: Proteus vulgaris ATCC 49132
[5] = test system: Candida tropicalis ATCC 37097
[6] = test system: Candida albicans ATCC 37092
[7] = test system: Escherichia coli ATCC 25922
[8] = test system: Listeria monocytogenes ATCC 19111
[9] = test system: Staphylococcus aureus ATCC 25923
[10] = test system: Enterobacter cloacae 6780
[11] = test system: Escherichia coli 170
[12] = test system: Klebsiella pneumoniae 1625
[13] = test system: Salmonella typhimurium
[14] = test system: Pseudomonas aeruginosa 4677
[15] = test system: Enterobacter cloacae 2524
[16] = test system: Streptococcus pneumoniae ATCC 49619
[17] = test system: Klebsiella pneumoniae 913
[18] = test system: Acinetobacter baumannii
[19] = test system: Escherichia coli 4530
[20] = test system: Klebsiella pneumoniae ST258
[21] = test system: Staphylococcus aureus A170
[22] = test system: Staphylococcus epidermidis
[23] = test system: Escherichia coli W160-37
[24] = test system: Staphylococcus aureus
[25] = test system: Salmonella enterica subsp. enterica serovar Typhimurium ATCC 14028
[26] = test system: Azotobacter vinelandii
[27] = test system: Escherichia coli D22
[28] = test system: Neurospora crassa CBS 327-54
[29] = test system: Micrococcus luteus A270
[30] = test system: Aspergillus fumigatus
[31] = test system: Bacillus subtilis IFO 3134
[32] = test system: Pseudomonas aeruginosa IFO 12582
[33] = test system: Escherichia coli IFO 12734
[34] = test system: Staphylococcus aureus IFO 12732
[35] = test system: Staphylococcus epidermidis NBRC 12933
[36] = test system: Staphylococcus aureus NBRC 12732
[37] = test system: Bacillus subtilis NBRC 3513
[38] = test system: Bacillus megaterium ATCC 19213

SMILES: CC(C)C[C@H](NC(=O)[C@H](CCCN=C(N)N)NC(=O)[C@H](CCCN=C(N)N)NC(=O)[C@H](Cc1ccc(O)cc1)NC(=O)[C@H](CC(C)C)NC(=O)[C@@H](N)CCCN=C(N)N)C(=O)N[C@@H](Cc1ccc(O)cc1)C(=O)N[C@@H](CCCN=C(N)N)C(N)=O [RLYRRLYR]
MIC [1]: 8.1 µM and 17.5 µM | MIC [2]: 4.1 µM and 8.7 µM | MIC [3]: 14.1 µM and 13.1 µM | MIC [4]: 10.2 µM and 18.4 µM | MIC [5]: 1.4 µM and 3.2 µM | MIC [6]: 9 µM and 17.4 µM | MIC [7]: 39 µM and 33.6 µM

SMILES: CSCC[C@H](NC(=O)CNC(=O)[C@@H](NC(=O)[C@@H]1CCCN1C(=O)[C@H](CCSC)NC(=O)CNC(=O)[C@H](CC(N)=O)NC(=O)[C@H](CC(N)=O)NC(=O)[C@H](Cc1ccc(O)cc1)NC(=O)[C@@H](NC(=O)[C@H](CCCN=C(N)N)NC(=O)[C@H](CS)NC(=O)[C@H](CCCN=C(N)N)NC(=O)[C@H](Cc1cnc[nH]1)NC(=O)[C@H](CCCCN)NC(=O)[C@H](CCCCN)NC(=O)[C@H](CCCN=C(N)N)NC(=O)[C@@H](N)CCCCN)C(C)C)[C@@H](C)O)C(=O)N[C@@H](Cc1ccc(O)cc1)C(=O)N[C@@H](CCCN=C(N)N)C(=O)N[C@@H](Cc1c[nH]c2ccccc12)C(=O)N[C@@H](CS)C(=O)O [KRKKHRCRVYNNGMPTGMYRWC]
MIC [8]: 8 µM (≈ 22.3 µg/mL)

SMILES: CC[C@H](C)[C@H](NC(=O)[C@@H]1CCCN1C(=O)[C@H](CC(C)C)NC(=O)[C@@H](N)CC(C)C)C(=O)N[C@H](C(=O)N[C@@H](C)C(=O)N[C@@H](CC(N)=O)C(=O)N[C@@H](CC(C)C)C(=O)N[C@@H](CC(C)C)C(=O)N[C@@H](CCCCN)C(=O)N[C@@H](C)C(=O)N[C@@H](CC(C)C)C(=O)N[C@@H](CC(C)C)C(=O)O)C(C)C [LLPIVANLLKALL]
MIC [21]: 3.6 µM (≈ 5 µg/mL) | MIC [22]: 7.19 µM (≈ 10 µg/mL)

SMILES: CC[C@H](C)[C@H](N)C(=O)N[C@@H](CC(C)C)C(=O)N1CCC[C@H]1C(=O)N[C@@H](Cc1c[nH]c2ccccc12)C(=O)N[C@@H](CCCCN)C(=O)N[C@@H](CC(C)C)C(=O)N1CCC[C@H]1C(=O)N[C@@H](CC(C)C)C(=O)N[C@@H](CC(C)C)C(=O)N1CCC[C@H]1C(=O)N[C@@H](CC(C)C)C(=O)N[C@@H](CCCN=C(N)N)C(=O)N[C@@H](CCCN=C(N)N)C(N)=O [ILPWKLPLLPLRR]
MIC [23]: 9.29 µM (≈ 15 µg/mL) | MIC [24]: 6.19 µM (≈ 9.99 µg/mL)

SMILES: CSCC[C@H](NC(=O)[C@H](CO)NC(=O)[C@@H](N)CO)C(=O)N[C@@H](CCCCN)C(=O)N[C@@H](CC(C)C)C(=O)N[C@@H](CO)C(=O)N[C@@H](Cc1ccccc1)C(=O)N[C@@H](CCCN=C(N)N)C(=O)N[C@@H](C)C(=O)N[C@@H](CCCN=C(N)N)C(=O)N[C@@H](C)C(=O)N[C@@H](Cc1ccc(O)cc1)C(=O)N[C@@H](CO)C(=O)N[C@@H](Cc1ccccc1)C(=O)N[C@@H](CCCN=C(N)N)C(=O)NCC(=O)N1CCC[C@H]1C(=O)NCC(=O)N1CCC[C@H]1C(=O)N[C@@H](CCC(N)=O)C(=O)N[C@@H](CC(C)C)C(=O)O [SSMKLSFRARAYSFRGPGPQL]
MIC [27]: ≥ 40 µM | MIC [28]: 5 µM (≈ 11.8 µg/mL) | MIC [29]: 2 µM (≈ 4.71 µg/mL) | MIC [30]: ≥ 80 µM

SMILES: CC[C@H](C)[C@H](NC(=O)[C@H](C)NC(=O)[C@@H]1CCCN1C(=O)[C@@H](NC(=O)[C@@H](NC(=O)[C@H](Cc1cnc[nH]1)NC(=O)[C@H](C)NC(=O)[C@H](C)NC(=O)[C@@H](NC(=O)[C@H](CCCCN)NC(=O)[C@H](C)NC(=O)[C@H](CC(C)C)NC(=O)[C@@H](NC(=O)CNC(=O)[C@H](Cc1ccccc1)NC(=O)[C@H](CC(C)C)NC(=O)CN)C(C)C)C(C)C)C(C)C)C(C)C)C(=O)N[C@@H](C)C(=O)N[C@@H](CCCCN)C(=O)N[C@@H](Cc1cnc[nH]1)C(=O)N[C@@H](Cc1ccccc1)C(N)=O [GLFGVLAKVAAHVVPAIAKHF]
MIC [31]: 4 µM (≈ 8.58 µg/mL) | MIC [32]: ≥ 32 µM | MIC [33]: 16 µM (≈ 34.3 µg/mL) | MIC [34]: 4 µM (≈ 8.58 µg/mL)

Now from value to compound:

MIC [9]: > 25.2 µM | MIC [10]: 3.12 µM (≈ 6.19 µg/mL) | MIC [11]: 1.56 µM (≈ 3.09 µg/mL) | MIC [2]: > 25.2 µM | MIC [12]: 1.56 µM (≈ 3.09 µg/mL) | MIC [13]: 1.6 µM (≈ 3.17 µg/mL) | MIC [14]: 25 µM (≈ 49.6 µg/mL) | MIC [15]: ≥ 50 µM | MIC [16]: ≥ 50 µM | MIC [17]: 3.12 µM (≈ 6.19 µg/mL) | MIC [7]: 1.56 µM (≈ 3.09 µg/mL) | MIC [18]: 2.21 µM (≈ 4.38 µg/mL) | MIC [19]: 25 µM (≈ 49.6 µg/mL) | MIC [20]: 25.2 µM (≈ 50 µg/mL)
SMILES: CC[C@H](C)[C@H](NC(=O)CN)C(=O)N[C@@H](CC(C)C)C(=O)N[C@@H](CCCCN)C(=O)N[C@H](C(=O)N[C@H](C(=O)N[C@@H](CCCCN)C(=O)N[C@@H](CO)C(=O)N[C@H](C(=O)N[C@@H](C)C(=O)N[C@@H](CO)C(=O)N[C@@H](CCCCN)C(=O)N[C@@H](CC(C)C)C(=O)N[C@@H](CCCCN)C(=O)N[C@@H](CCCN=C(N)N)C(=O)N[C@@H](CCCCN)C(=O)N[C@@H](C)C(=O)N[C@@H](CCCCN)C(=O)O)[C@@H](C)CC)[C@@H](C)CC)[C@@H](C)O [GILKTIKSIASKLKRKAK]

MIC [25]: 42.3 µM (≈ 100 µg/mL) | MIC [26]: ≥ 84.6 µM
SMILES: CC(C)[C@H](NC(=O)[C@H](CCCCN)NC(=O)[C@@H](NC(=O)[C@@H](NC(=O)[C@H](CCC(=O)O)NC(=O)[C@H](CC(N)=O)NC(=O)[C@H](CCC(=O)O)NC(=O)[C@H](CCCCN)NC(=O)[C@H](CC(=O)O)NC(=O)[C@H](CC(=O)O)NC(=O)[C@H](CCC(=O)O)NC(=O)[C@H](CCC(=O)O)NC(=O)[C@H](CCC(=O)O)NC(=O)[C@@H](NC(=O)[C@H](CCCCN)NC(=O)[C@H](CC(=O)O)NC(=O)[C@H](CC(=O)O)NC(=O)[C@@H](N)CC(=O)O)[C@@H](C)O)[C@@H](C)O)[C@@H](C)O)C(=O)N[C@H](C(=O)N[C@@H](CCC(=O)O)C(=O)O)C(C)C [DDDKTEEEDDKENETTKVVE]

MIC [35]: 8 µM (≈ 16.6 µg/mL) | MIC [36]: 4 µM (≈ 8.31 µg/mL) | MIC [37]: 16 µM (≈ 33.2 µg/mL) | MIC [38]: 4 µM (≈ 8.31 µg/mL)
SMILES: CC[C@H](C)[C@H](NC(=O)[C@H](C)N)C(=O)N[C@@H](Cc1ccccc1)C(=O)N[C@H](C(=O)N[C@@H](Cc1ccccc1)C(=O)N[C@H](C(=O)N[C@@H](CCCN=C(N)N)C(=O)N[C@@H](Cc1c[nH]c2ccccc12)C(=O)N[C@@H](CC(C)C)C(=O)N[C@@H](CC(C)C)C(=O)N[C@@H](CCCCN)C(=O)N[C@@H](CC(C)C)C(=O)NCC(=O)N[C@@H](Cc1cnc[nH]1)C(=O)N[C@@H](Cc1cnc[nH]1)C(=O)NCC(=O)N[C@@H](CCCN=C(N)N)C(=O)O)[C@@H](C)CC)[C@@H](C)CC [AIFIFIRWLLKLGHHGR]
